Columns and labels:
[1] = target: mutant cKIT (560-576 and V654A) in GIST430/654 cell line (Homo sapiens (Human), UniProt P10721, DEL560-576/V654A); test: Cellular testing of cKIT mutant inhibitors: phospho-Y307-cKIT Luminex assay in GIST430/654 cells; assay type: cell-based; conditions: Table 1; cKIT autophosphorylation, compounds 45 min; read-out: GIST 430/654 IC50
Protocol: Assay Principle for Cellular Testing of cKIT Mutant Inhibitors
The GIST430/654 cell line expressing mutated constitutively active cKIT receptor tyrosine kinase ([…]560-576 and V654A) was employed for assessing cellular potency of compounds. Cellular activity of mutant cKIT was determined by the degree of cKIT autophosphorylation at tyrosine 307 using a Luminex-based bead assay. GIST430/654 cells were plated with 25,000 cells per well of a 96-well plate in 100 μl medium (85% IMDM/15% FCS supplemented with 100 nM Imatinib). At the following day compounds were added in a serial dilution for 45 min. Then, cells were lysed with 90 μl lysis buffer (20 mM Hepes pH 7.5, 200 mM NaCl, 1.5 mM MgCl2×6H2O, 0.4 mM EDTA, 1% Triton-X-100, 1% Phosphatase-Inhibitor II, 20 mM D-Glycerolphosphat, 0.1% Protease-Inhibitor Cocktail III, 0.01% Benzonase) und lysates were cleared by centrifugation through a 96-well filter plate (0.65 μm). Samples were incubated with Luminex-beads which were coupled with an anti-total cKIT antibody overnight at 4° C. under gentle agitation. For detection of phospho-Y307-cKIT a phosphospecific antibody and a species-specific PE-labelled secondary antibody were added. The amount of phospho-Y307-cKIT was determined in a Luminex 200 instrument measuring 100 events per well within 60 seconds.
Counts from samples treated with compounds were calculated as percent of control from solvent treated (0.3% DMSO) samples. Dose-response curves were fitted and IC50 values were determined using Genedata Screener software.

c-Kit(V654A) = c-Kit(V654A) (Homo sapiens, UniProt P10721, V654A); test: c-Kit(V654A) assay; assay type: biochemical; conditions: Table 1; 200 μM ATP
Protocol: c-Kit(V654A) (N-terminal GST-tagged, recombinant human c-Kit, amino acids 544-end containing the V654A mutation) is incubated with 8 mM MOPS pH 7.0, 0.2 mM EDTA, 250 μM GGMEDIYEFMGGKKK, 10 mM MgAcetate and [gamma-33P-ATP](specific activity approx. 500 cpm/pmol, concentration 200 μM). The reaction is initiated by the addition of the MgATP mix. After incubation for 40 minutes at room temperature, the reaction is stopped by the addition of 3% phosphoric acid solution. 10 μL of the reaction is then spotted onto a P30 filtermat and washed three times for 5 minutes in 75 mM phosphoric acid and once in methanol prior to drying and scintillation counting.

Chain of mutant cKIT (560-576 and V654A) in GIST430/654 cell line (P10721 other isoform, or with tags, fused parts or gaps V654A/del 1-25/del 560-576 limits assumed): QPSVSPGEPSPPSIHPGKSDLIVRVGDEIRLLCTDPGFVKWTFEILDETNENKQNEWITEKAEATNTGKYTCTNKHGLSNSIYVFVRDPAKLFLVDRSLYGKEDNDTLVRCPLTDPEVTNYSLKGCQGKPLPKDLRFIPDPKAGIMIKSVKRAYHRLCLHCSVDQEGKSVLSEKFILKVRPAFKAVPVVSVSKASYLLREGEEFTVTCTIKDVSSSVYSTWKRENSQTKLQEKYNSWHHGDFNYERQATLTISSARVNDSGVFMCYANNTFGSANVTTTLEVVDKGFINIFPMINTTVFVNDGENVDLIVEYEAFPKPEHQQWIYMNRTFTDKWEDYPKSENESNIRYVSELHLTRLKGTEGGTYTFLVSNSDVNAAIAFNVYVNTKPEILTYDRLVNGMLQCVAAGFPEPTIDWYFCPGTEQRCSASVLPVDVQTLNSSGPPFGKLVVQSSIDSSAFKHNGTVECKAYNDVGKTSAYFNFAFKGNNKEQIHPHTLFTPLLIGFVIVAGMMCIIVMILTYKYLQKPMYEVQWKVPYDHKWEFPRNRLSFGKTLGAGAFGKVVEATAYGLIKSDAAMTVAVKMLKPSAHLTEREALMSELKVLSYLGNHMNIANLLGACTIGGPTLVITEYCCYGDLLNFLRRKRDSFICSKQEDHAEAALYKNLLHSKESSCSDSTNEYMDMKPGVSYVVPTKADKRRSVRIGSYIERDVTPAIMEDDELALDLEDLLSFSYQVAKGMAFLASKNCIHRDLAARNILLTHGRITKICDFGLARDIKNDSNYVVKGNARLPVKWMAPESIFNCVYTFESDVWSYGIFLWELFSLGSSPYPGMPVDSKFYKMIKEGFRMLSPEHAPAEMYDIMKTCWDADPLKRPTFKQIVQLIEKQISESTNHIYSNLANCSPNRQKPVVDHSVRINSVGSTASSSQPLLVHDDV

| Structure (SMILES) | IC50 [1] [nM] | IC50 (c-Kit(V654A)) [nM] |
| --- | --- | --- |
| COCCOc1cc2[nH]nc(-c3cc(-c4ccc(N5CCCNCC5)cc4)no3)c2cc1F [A42, 3-{3-[4-(1,4-diazepan-1-yl)phenyl]-1,2-oxazol-5-yl}-5-fluoro-6-(2-methoxyethoxy)-1H-indazole] | 170 | 0.73 |
| COCCOc1cc2[nH]nc(-c3cc(-c4ccc(C(=O)N5CCOCC5)cc4)on3)c2cc1F [A43, (4-{3-[5-fluoro-6-(2-methoxy-ethoxy)-1H-indazol-3-yl]-isoxazol-5-yl}-phenyl)-morpholin-4-yl-methanone] | 120 | 2.2 |
| COCCOc1cc2[nH]nc(-c3cc(-c4ccc(N=S(C)(C)=O)cc4)no3)c2cc1F [A47, [(4-{5-[5-fluoro-6-(2-methoxyethoxy)-1H-indazol-3-yl]-1,2-oxazol-3-yl}phenyl)imino]dimethyl-lambda6-sulfanone] | 77 | 2.4 |
| COC(CO)COc1cc2[nH]nc(-c3cc(-c4ccc(C(=O)N(C)C)cc4)no3)c2cc1F (centres unmarked) [A49, 4-{5-[5-fluoro-6-(3-hydroxy-2-methoxypropoxy)-1H-indazol-3-yl]-1,2-oxazol-3-yl}-N,N-dimethylbenzamide] | 500 | 1.9 |
| C[C@H]1CN(C)CCN1C(=O)c1ccc(-c2cc(-c3n[nH]c4cc(C(F)(F)F)ccc34)on2)cc1 [A50, 3-(3-{4-[(2S)-2,4-dimethylpiperazine-1-carbonyl]phenyl}-1,2-oxazol-5-yl)-6-(trifluoromethyl)-1H-indazole] | 730 | 14 |
| COCCOc1cc2[nH]nc(-c3cc(-c4ccc(C(=O)N5CCN(C)CC5CO)cc4)no3)c2cc1F (centres unmarked) [A54, [1-(4-{5-[5-fluoro-6-(2-methoxyethoxy)-1H-indazol-3-yl]-1,2-oxazol-3-yl}benzoyl)-4-methylpiperazin-2-yl]methanol] | 130 | 0.73 |
| COCCOc1cc2[nH]nc(-c3cc(-c4ccc(C(=O)N5CCC[C@@H]5CS(C)(=O)=O)cc4)no3)c2cc1F [A55, 5-fluoro-3-(3-{4-[(2R)-2-(methanesulfonylmethyl)pyrrolidine-1-carbonyl]phenyl}-1,2-oxazol-5-yl)-6-(2-methoxyethoxy)-1H-indazole] | 65 | 0.73 |
| COCCOc1cc2[nH]nc(-c3cc(-c4ccc(C(=O)N5CC(C)(N)C5)cc4)no3)c2cc1F [A56, 1-(4-{5-[5-fluoro-6-(2-methoxyethoxy)-1H-indazol-3-yl]-1,2-oxazol-3-yl}benzoyl)-3-methylazetidin-3-amine] | 170 | 1.6 |
| COCCOc1cc2[nH]nc(-c3cc(-c4ccc(C(=O)N5CC(N6CCS(=O)(=O)CC6)C5)cc4)no3)c2cc1F [A57, 4-[1-(4-{5-[5-fluoro-6-(2-methoxyethoxy)-1H-indazol-3-yl]-1,2-oxazol-3-yl}benzoyl)azetidin-3-yl]-1lambda6-thiomorpholine-1,1-dione] | 180 | 1.9 |
| COc1cc2[nH]nc(-c3cc(-c4ccc(C(=O)N5CC(N6CCOCC6)C5)cc4)no3)c2cc1F [A61, 5-fluoro-6-methoxy-3-(3-{4-[3-(morpholin-4-yl)azetidine-1-carbonyl]phenyl}-1,2-oxazol-5-yl)-1H-indazole] | 110 | 5.5 |
| COCCOc1cc2[nH]nc(-c3cc(-c4ccc(C(=O)N5CCC[C@@H]5CO)nc4)no3)c2cc1F [A62, (5-{5-[5-fluoro-6-(2-methoxy-ethoxy)-1H-indazol-3-yl]-isoxazol-3-yl}-pyridin-2-yl)-((R)-2-hydroxymethyl-pyrrolidin-1-yl)-methanone] | 450 | 5.6 |
| COCCOc1cc2[nH]nc(-c3cc(-c4ccc(C(=O)N5CCC[C@H]5CO)nc4)no3)c2cc1F [A63, (5-{5-[5-fluoro-6-(2-methoxy-ethoxy)-1H-indazol-3-yl]-isoxazol-3-yl}-pyridin-2-yl)-((S)-2-hydroxymethyl-pyrrolidin-1-yl)-methanone] | 290 | 5.7 |

These reach a lower IC50 [1]. Values come first.

| IC50 [1] [nM] | IC50 (c-Kit(V654A)) [nM] | Structure (SMILES) |
| --- | --- | --- |
| 41 | 1.1 | COCCOc1cc2[nH]nc(-c3cc(-c4ccc(C(=O)N5CCCOCC5)cc4)no3)c2cc1F [A44, 5-fluoro-6-(2-methoxyethoxy)-3-{3-[4-(1,4-oxazepane-4-carbonyl)phenyl]-1,2-oxazol-5-yl}-1H-indazole] |
| 59 | 1.2 | COCCOc1cc2[nH]nc(-c3cc(-c4ccc(C(=O)N5CCN(C6COC6)CC5)cc4)no3)c2cc1F [A45, (4-{5-[5-fluoro-6-(2-methoxy-ethoxy)-1H-indazol-3-yl]-isoxazol-3-yl}-phenyl)-(4-oxetan-3-yl-piperazin-1-yl)-methanone] |
| 58 | 0.96 | COCCOc1cc2[nH]nc(-c3cc(-c4ccc(C(=O)N5CCNCC5)cc4)no3)c2cc1F [A46, 5-fluoro-6-(2-methoxyethoxy)-3-{3-[4-(piperazine-1-carbonyl)phenyl]-1,2-oxazol-5-yl}-1H-indazole] |
| 57 | 0.88 | COCCOc1cc2[nH]nc(-c3cc(-c4ccc(C(=O)N5CCC[C@H]5CO)cc4)no3)c2cc1F [A51, [(2S)-1-(4-{5-[5-fluoro-6-(2-methoxyethoxy)-1H-indazol-3-yl]-1,2-oxazol-3-yl}benzoyl)pyrrolidin-2-yl]methanol] |
| 55 | 0.82 | COCCOc1cc2[nH]nc(-c3cc(-c4ccc(C(=O)N5CCC[C@@H]5CO)cc4)no3)c2cc1F [A52, [(2R)-1-(4-{5-[5-fluoro-6-(2-methoxyethoxy)-1H-indazol-3-yl]-1,2-oxazol-3-yl}benzoyl)pyrrolidin-2-yl]methanol] |
| 15 | 1.4 | COCCOc1cc2[nH]nc(-c3cc(-c4ccc(C(=O)N5CC(N6CCOCC6)C5)cc4)no3)c2cc1F [A53, 5-fluoro-6-(2-methoxyethoxy)-3-(3-{4-[3-(morpholin-4-yl)azetidine-1-carbonyl]phenyl}-1,2-oxazol-5-yl)-1H-indazole] |
| 52 | 0.78 | COCCOc1cc2[nH]nc(-c3cc(-c4ccc(C(=O)N5CC[C@@H]5C(C)(C)O)cc4)no3)c2cc1F [A58, 2-[(2R)-1-(4-{5-[5-fluoro-6-(2-methoxyethoxy)-1H-indazol-3-yl]-1,2-oxazol-3-yl}benzoyl)azetidin-2-yl]propan-2-ol] |
| 33 | 0.51 | COCCOc1cc2[nH]nc(-c3cc(-c4ccc(C(=O)N5CC[C@H]5C(C)(C)O)cc4)no3)c2cc1F [A59, 2-[(2S)-1-(4-{5-[5-fluoro-6-(2-methoxyethoxy)-1H-indazol-3-yl]-1,2-oxazol-3-yl}benzoyl)azetidin-2-yl]propan-2-ol] |
| 28 | 0.44 | COCCOc1cc2[nH]nc(-c3cc(-c4ccc(C(=O)N5CCC6(CC5)COC6)cc4)no3)c2cc1F [A60, 7-(4-{5-[5-fluoro-6-(2-methoxyethoxy)-1H-indazol-3-yl]-1,2-oxazol-3-yl}benzoyl)-2-oxa-7-azaspiro[3.5]nonane] |
| 32 | 0.53 | COCCOc1cc2[nH]nc(-c3cc(-c4ccc(C(=O)N5CC(N6CCOCC6)C5)cc4)no3)c2cc1Cl [A64, (4-{5-[5-chloro-6-(2-methoxy-ethoxy)-1H-indazol-3-yl]-isoxazol-3-yl}-phenyl)-(3-morpholin-4-yl-azetidin-1-yl)-methanone] |

Source: US20260042753A1 (Merck Patent GmbH, priority 2019, published 2026)
